Data taken from PubChem BioAssay AID256 (DTP/NCI, 2004).
Toxic doses and inconclusive results are not listed. The calls were made as follows: active = survival T/C of 150% or more; inactive = T/C below 125% in these data.

System: CD2F1 mice, L1210 leukemia ip, survival T/C
Test: NCI In Vivo Anticancer Drug Screen. Data for tumor model L1210 Leukemia (intraperitoneal) in CD2F1 (CDF1) mice
Conditions: higher = longer survival
In short: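 Mice carrying a transplanted tumor received test compound or vehicle alone. The value is the measurement in the treated group divided by that in the vehicle-treated control group.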

[1] = endpoint: mean survival time, dose: 100.0 mg/kg/injection, schedule: Q04DX002 (ip), vehicle: saline with Tween-80
[2] = endpoint: mean survival time, dose: 200.0 mg/kg/injection, schedule: Q04DX002 (ip), vehicle: saline with Tween-80
[3] = endpoint: mean survival time, dose: 400.0 mg/kg/injection, schedule: Q04DX002 (ip), vehicle: saline with Tween-80
[4] = endpoint: mean survival time, dose: 100.0 mg/kg/injection, schedule: Q04DX003 (ip), vehicle: saline
[5] = endpoint: mean survival time, dose: 200.0 mg/kg/injection, schedule: Q04DX003 (ip), vehicle: saline
[6] = endpoint: mean survival time, dose: 50.0 mg/kg/injection, schedule: Q01DX009 (ip), vehicle: saline with Tween-80
[7] = endpoint: mean survival time, dose: 100.0 mg/kg/injection, schedule: Q01DX009 (ip), vehicle: saline with Tween-80
[8] = endpoint: mean survival time, dose: 100.0 mg/kg/injection, schedule: Q04DX003 (ip), vehicle: saline with Tween-80
[9] = endpoint: mean survival time, dose: 200.0 mg/kg/injection, schedule: Q01DX009 (ip), vehicle: saline with Tween-80
[10] = endpoint: mean survival time, dose: 200.0 mg/kg/injection, schedule: Q04DX003 (ip), vehicle: saline with Tween-80
[11] = endpoint: mean survival time, dose: 400.0 mg/kg/injection, schedule: Q04DX003 (ip), vehicle: saline with Tween-80
[12] = endpoint: mean survival time, dose: 100.0 mg/kg/injection, schedule: Q01DX001 (ip), vehicle: saline
[13] = endpoint: mean survival time, dose: 200.0 mg/kg/injection, schedule: Q01DX001 (ip), vehicle: saline
[14] = endpoint: mean survival time, dose: 400.0 mg/kg/injection, schedule: Q01DX001 (ip), vehicle: saline
[15] = endpoint: mean survival time, dose: 75.0 mg/kg/injection, schedule: Q01DX001 (ip), vehicle: other

Measured: T/C

COC(C[P+](Cc1ccccc1)(c1ccccc1)c1ccccc1)OC
inactive: endpoint: mean survival time, dose: 18.8 mg/kg/injection, schedule: Q04DX003 (ip), vehicle: saline 104 % of control | endpoint: mean survival time, dose: 37.5 mg/kg/injection, schedule: Q04DX003 (ip), vehicle: saline 103 % of control | endpoint: mean survival time, dose: 75.0 mg/kg/injection, schedule: Q01DX001 (ip), vehicle: saline 101 % of control | endpoint: mean survival time, dose: 75.0 mg/kg/injection, schedule: Q04DX003 (ip), vehicle: saline 98 % of control

Cc1ccc(NC(=O)NC(C)C)c(C)c1
inactive: endpoint: mean survival time, dose: 6.25 mg/kg/injection, schedule: Q01DX009 (ip), vehicle: saline with Tween-80 97 % of control | endpoint: mean survival time, dose: 12.5 mg/kg/injection, schedule: Q01DX009 (ip), vehicle: saline with Tween-80 100 % of control | endpoint: mean survival time, dose: 25.0 mg/kg/injection, schedule: Q01DX009 (ip), vehicle: saline with Tween-80 97 % of control

C1=NOC2c3ccc4ccccc4c3CCC12 (stereo not drawn)
inactive: endpoint: mean survival time, dose: 100.0 mg/kg/injection, schedule: Q04DX003 (ip), vehicle: Klucel (hydroxypropylcellulose) (HPC) 100 % of control | endpoint: mean survival time, dose: 200.0 mg/kg/injection, schedule: Q04DX003 (ip), vehicle: Klucel (hydroxypropylcellulose) (HPC) 101 % of control | endpoint: mean survival time, dose: 400.0 mg/kg/injection, schedule: Q04DX003 (ip), vehicle: Klucel (hydroxypropylcellulose) (HPC) 107 % of control

[Cl][Pt+2][Cl].[N-]=C(N)/N=C(\[NH-])N
inactive: endpoint: median survival time, dose: 12.5 mg/kg/injection, schedule: Q04DX003 (ip), vehicle: distilled water + Tween-80 104 % of control | endpoint: median survival time, dose: 25.0 mg/kg/injection, schedule: Q04DX003 (ip), vehicle: distilled water + Tween-80 101 % of control | endpoint: median survival time, dose: 50.0 mg/kg/injection, schedule: Q04DX003 (ip), vehicle: distilled water + Tween-80 101 % of control | endpoint: median survival time, dose: 100.0 mg/kg/injection, schedule: Q04DX003 (ip), vehicle: distilled water + Tween-80 108 % of control | endpoint: median survival time, dose: 200.0 mg/kg/injection, schedule: Q04DX003 (ip), vehicle: distilled water + Tween-80 108 % of control

COc1ccc(NC(=O)Nc2ccc(OC)cc2Cl)cc1
inactive: [1] 90 % of control | [2] 86 % of control | [3] 90 % of control

NP(=O)(OC(c1ccccc1)C12CC3CC(CC(C3)C1)C2)N(CCCl)CCCl (stereo not drawn)
inactive: endpoint: mean survival time, dose: 62.5 mg/kg/injection, schedule: Q01DX001 (ip), vehicle: other 92 % of control | endpoint: mean survival time, dose: 125.0 mg/kg/injection, schedule: Q01DX001 (ip), vehicle: other 97 % of control | endpoint: mean survival time, dose: 250.0 mg/kg/injection, schedule: Q01DX001 (ip), vehicle: other 102 % of control | endpoint: mean survival time, dose: 500.0 mg/kg/injection, schedule: Q01DX001 (ip), vehicle: other 105 % of control

O=C1CCC(=O)N1CO
inactive: endpoint: mean survival time, dose: 100.0 mg/kg/injection, schedule: Q01DX009 (ip), vehicle: saline 102 % of control | [4] 106 % of control | endpoint: mean survival time, dose: 200.0 mg/kg/injection, schedule: Q01DX009 (ip), vehicle: saline 109 % of control | [5] 101 % of control | endpoint: mean survival time, dose: 400.0 mg/kg/injection, schedule: Q01DX009 (ip), vehicle: saline 111 % of control | endpoint: mean survival time, dose: 400.0 mg/kg/injection, schedule: Q04DX003 (ip), vehicle: saline 116 % of control

O=[N+]([O-])O.[La]
inactive: [6] 90 % of control | [7] 97 % of control | [8] 92 % of control | [4] 97 % of control | [9] 92 % of control | [10] 93 % of control | [5] 98 % of control

CN(C)S(=O)(=O)CC(O)(c1ccccc1)c1ccccc1
inactive: [8] 103 % of control | [10] 103 % of control | [11] 110 % of control

O=C(OCC1OCOC(COC(=O)c2ccccc2)C(OC(=O)c2ccccc2)C1OC(=O)c1ccccc1)c1ccccc1 (stereo not drawn)
inactive: [1] 100 % of control | [2] 88 % of control | [3] 88 % of control

C[n+]1cnc2c(ccn2C2OC(CO)C(O)C2O)c1N (stereo not drawn)
inactive: endpoint: mean survival time, dose: 50.0 mg/kg/injection, schedule: Q01DX001 (ip), vehicle: saline 102 % of control | [12] 100 % of control | [13] 102 % of control | [14] 100 % of control

CN(C)CCP(c1ccccc1)c1ccccc1
inactive: [15] 102 % of control

CNC(=O)N(C)CC(O)C(O)C(O)C(O)CO (stereo not drawn)
inactive: [8] 97 % of control | [10] 104 % of control | [11] 106 % of control

Cc1ccc(NC(=O)CCl)cc1Cl
inactive: [6] 95 % of control | [7] 90 % of control | [8] 98 % of control | [10] 89 % of control

O=C1CSC(=O)N1 (tested in a mixture with another compound)
inactive: [12] 96 % of control | [13] 96 % of control | [14] 107 % of control

Cc1[nH]nc(C(N)=O)c1N=NN1CCOCC1
inactive: [15] 101 % of control | endpoint: mean survival time, dose: 150.0 mg/kg/injection, schedule: Q01DX001 (ip), vehicle: other 106 % of control | endpoint: mean survival time, dose: 300.0 mg/kg/injection, schedule: Q01DX001 (ip), vehicle: other 109 % of control

Cc1ccc(-c2cc(Cl)c3cc(S(=O)(=O)F)ccc3n2)cc1
inactive: [7] 102 % of control | [8] 104 % of control | [9] 98 % of control | [10] 102 % of control | endpoint: mean survival time, dose: 400.0 mg/kg/injection, schedule: Q01DX009 (ip), vehicle: saline with Tween-80 90 % of control | [11] 107 % of control

O.O=S(=O)([O-])O.O=[N+]([O-])O.[Co+3].[NH2-].[NH2-].[NH2-].[NH2-]
inactive: [1] 94 % of control | [2] 97 % of control

ClC(Cl)(Cl)C1CCC(Br)C2CCCCC21 (stereo not drawn)
inactive: [8] 92 % of control | [10] 100 % of control | [11] 96 % of control

O=C(O)c1nc2ccccc2c(=O)[nH]1
inactive: endpoint: mean survival time, dose: 50.0 mg/kg/injection, schedule: Q04DX002 (ip), vehicle: saline with Tween-80 93 % of control | endpoint: mean survival time, dose: 100.0 mg/kg/injection, schedule: Q01DX001 (ip), vehicle: saline with Tween-80 102 % of control | [1] 93 % of control | endpoint: mean survival time, dose: 200.0 mg/kg/injection, schedule: Q01DX001 (ip), vehicle: saline with Tween-80 92 % of control | [2] 93 % of control

CCC[CH2][Pb]([Cl])([CH2]CCC)[CH2]CCC
inactive: endpoint: mean survival time, dose: 1.5 mg/kg/injection, schedule: Q01DX009 (ip), vehicle: saline with Tween-80 96 % of control | endpoint: mean survival time, dose: 3.0 mg/kg/injection, schedule: Q01DX009 (ip), vehicle: saline with Tween-80 96 % of control | endpoint: mean survival time, dose: 6.0 mg/kg/injection, schedule: Q01DX009 (ip), vehicle: saline with Tween-80 93 % of control | endpoint: mean survival time, dose: 6.25 mg/kg/injection, schedule: Q04DX003 (ip), vehicle: saline with Tween-80 93 % of control | endpoint: mean survival time, dose: 12.5 mg/kg/injection, schedule: Q04DX003 (ip), vehicle: saline with Tween-80 87 % of control | endpoint: mean survival time, dose: 25.0 mg/kg/injection, schedule: Q04DX003 (ip), vehicle: saline with Tween-80 93 % of control

COc1ccc(C(O)(CC(=O)O)c2ccc(OC)cc2)cc1
inactive: [12] 98 % of control | [13] 95 % of control | [14] 97 % of control

CCC(C)C(C(=O)OCC[N+](C)(CC)CC)c1ccc(C)c(C)c1 (stereo not drawn)
inactive: endpoint: mean survival time, dose: 12.5 mg/kg/injection, schedule: Q04DX003 (ip), vehicle: saline 93 % of control | endpoint: mean survival time, dose: 25.0 mg/kg/injection, schedule: Q04DX003 (ip), vehicle: saline 101 % of control | endpoint: mean survival time, dose: 50.0 mg/kg/injection, schedule: Q04DX003 (ip), vehicle: saline 97 % of control

COc1ccc(CCN(C=O)c2ccc(OC)c(OC)c2)cc1OC
inactive: endpoint: mean survival time, dose: 12.5 mg/kg/injection, schedule: Q01DX009 (ip), vehicle: water 96 % of control | endpoint: mean survival time, dose: 25.0 mg/kg/injection, schedule: Q01DX009 (ip), vehicle: water 98 % of control | endpoint: mean survival time, dose: 50.0 mg/kg/injection, schedule: Q01DX009 (ip), vehicle: water 98 % of control | endpoint: mean survival time, dose: 100.0 mg/kg/injection, schedule: Q01DX009 (ip), vehicle: water 100 % of control | endpoint: mean survival time, dose: 200.0 mg/kg/injection, schedule: Q01DX009 (ip), vehicle: water 100 % of control

COC1(c2ccccc2)CN(Cc2ccccc2)CCO1 (stereo not drawn)
inactive: [8] 103 % of control | [10] 100 % of control | [11] 106 % of control

COc1nn(O)cc(C)c1=N
inactive: endpoint: mean survival time, dose: 6.25 mg/kg/injection, schedule: Q04DX002 (ip), vehicle: saline with Tween-80 93 % of control | endpoint: mean survival time, dose: 12.5 mg/kg/injection, schedule: Q04DX002 (ip), vehicle: saline with Tween-80 101 % of control | endpoint: mean survival time, dose: 25.0 mg/kg/injection, schedule: Q04DX002 (ip), vehicle: saline with Tween-80 101 % of control
